This is an account of results in patent US20230012570A1, “BICYCLIC COMPOUND USED AS SELECTIVE ANDROGEN RECEPTOR MODULATOR” (MEDSHINE DISCOVERY INC., priority 2019, published 2023).

One data set addresses T1, CYP3A4 (Homo sapiens, UniProt P08684).
T1 construct: Mixed human liver microsomes (HLM) were purchased from Corning Inc; tissue Corning Inc. or XenoTech, LLC. or other suppliers; host or cells: pooled human liver microsomes
Description: Human liver microsomal CYP inhibition experiment, CYP3A4. In kind it is in vitro ADME. How it is done: (§1) Experiment Embodiment 4: Human Liver Microsomal CYP Inhibition Experiment
(§2) The inhibitory effects of the test compound 3A and VK5211 on the activities of human liver microsomal cytochrome P450 isozymes (CYP1A2, CYP2C9, CYP2C19, CYP2D6 and CYP3A4) were determined.
(§3) Mixed human liver microsomes (HLM) were purchased from Corning Inc. (Steuben, New York, USA) or XenoTech, LLC. (Lenexa, Kans., USA) or other suppliers, and were stored at a temperature below −60° C. before use.
(§4) First, the test compound (10.0 mM) was gradient diluted to prepare working solution (100×final concentration), and the concentrations of the working solution were: 5.00, 1.50, 0.500, 0.150, 0.0500, 0.0150, 0.00500 mM, and a working solution of each positive inhibitor of P450 isozymes (CYP1A2, CYP2C9, CYP2C19, CYP2D6, and CYP3A4) and a specific substrate mixture thereof (5 in 1) were prepared at the same time; human liver microsomes stored in a refrigerator at a temperature lower than −60° C. were put on ice to thaw, and when all the human liver microsomes were dissolved, the microsomes were diluted with potassium phosphate buffer (PB) to prepare a working solution of a certain concentration (0.253 mg/mL). […] The concentration of metabolites produced by the probe substrate in the sample was determined by liquid chromatography-tandem mass spectrometry (LC-MS/MS) method. […]

A further data set concerns the target T2, CYP2C9 (Homo sapiens, UniProt P11712).
T2 construct: Mixed human liver microsomes (HLM) were purchased from Corning Inc; tissue Corning Inc. or XenoTech, LLC. or other suppliers; host or cells: pooled human liver microsomes
Description: Human liver microsomal CYP inhibition experiment, CYP2C9. The format is in vitro ADME. The method, then: as §1, §2, §3, §4

The nature of data set [1]: Pharmacokinetic test in male SD rats, intravenous and intragastric administration, plasma LC-MS/MS. As to conditions: rat; for AUC(0-t): read-out: Curve area (0-t) AUC0-last; for half-life: read-out: Half-life T1/2 (converted). In kind it is in vivo. From the text:
Experimental Embodiment 2: Pharmacokinetic Test of the Compounds of the Present Disclosure
Male SD rats were used as test animals, and LC-MS/MS method was used to determine the drug concentrations in plasma of rats at different time after intravenous and intragastric administration of compound 1A, compound 3A and compound 8A. To study the pharmacokinetic behavior of the compounds in rats and to evaluate their pharmacokinetic characteristics.
2.1 Test Drugs: Compound 1A, Compound 3A and Compound 8A
2.2 Test animals: 12 healthy adult male SD rats, divided into 6 groups with 2 rats in each group. The animal was purchased from Shanghai Sippr-BK laboratory animal Co. Ltd., and the animal production license number was SOCK (Shanghai) 2013-0016.
An appropriate amount of sample was weighed, and appropriate amounts of DMSO, polyethylene glycol-15 hydroxystearate and water were added in turn according to the volume ratio of 10:10:80, and the clarified state of 0.2 mg/mL was reached after stirring and sonication for intravenous administration.
An appropriate amount of sample was weighed and dissolved in 5% Tween 80+90% polyethylene glycol 400+5% polyvinylpyrrolidone K30 solution, and the clarified state of 0.5 mg/mL was reached after stirring and sonication for intragastric administration.
12 male SD rats were divided into 6 groups, and after fasting overnight, groups 1-3 were administered intravenously with a volume of 5 mL/kg; groups 4-6 were administered by gavage with a volume of 10 mL/kg.
After compound 1A, compound 3A and compound 8A were intravenously administered to SD rats, 40 μL of blood was collected at 0.0833, 0.25, 0.5, 1, 2, 4, 8 and 24 hours, respectively, and placed in a test tube containing 2 μL of EDTA-K2. After compound 1A and compound 3A were administered by gavage, 40 μL of blood was collected at 0.25, 0.5, 1, 2, 4, 8 and 24 hours, respectively, and placed in a test tube containing 2 μL of EDTA-K2. The tubes were centrifuged at 4000 rpm for 15 minutes to separate the plasma and stored at −60° C. Animals were allowed to eat 2 hours after administration.
The content of the test compounds in the plasma of rats after intravenous and intragastric administration was determined by LC-MS/MS method. The linear range of the method was 2.00-6000 nmol/L; plasma samples were analyzed after acetonitrile precipitation protein treatment.

[2] abbreviates: intravenous administration, dose 1.1 (1A), 0.69 (3A), 0.716 (8A) mg/kg.
[3] abbreviates: po, intragastric administration, dose 4.92 (1A), 4.2 (3A), 4.59 (8A) mg/kg.

Like-named read-outs stand apart in the source and are kept apart here.

T2 sequence (P11712 whole entry): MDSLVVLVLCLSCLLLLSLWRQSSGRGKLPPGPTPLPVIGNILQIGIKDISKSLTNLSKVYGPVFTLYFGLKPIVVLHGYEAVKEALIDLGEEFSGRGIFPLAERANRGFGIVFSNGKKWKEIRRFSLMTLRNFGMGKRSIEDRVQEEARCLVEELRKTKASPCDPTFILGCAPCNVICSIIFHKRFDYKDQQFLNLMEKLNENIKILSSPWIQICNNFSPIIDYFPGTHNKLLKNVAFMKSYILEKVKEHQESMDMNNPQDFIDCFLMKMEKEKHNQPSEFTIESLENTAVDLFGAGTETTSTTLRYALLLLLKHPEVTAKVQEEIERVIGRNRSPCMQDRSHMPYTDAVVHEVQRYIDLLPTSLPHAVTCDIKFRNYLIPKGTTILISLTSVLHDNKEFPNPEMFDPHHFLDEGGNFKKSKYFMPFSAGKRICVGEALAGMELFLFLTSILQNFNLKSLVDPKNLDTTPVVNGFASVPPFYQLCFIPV
T1 sequence (P08684 whole entry): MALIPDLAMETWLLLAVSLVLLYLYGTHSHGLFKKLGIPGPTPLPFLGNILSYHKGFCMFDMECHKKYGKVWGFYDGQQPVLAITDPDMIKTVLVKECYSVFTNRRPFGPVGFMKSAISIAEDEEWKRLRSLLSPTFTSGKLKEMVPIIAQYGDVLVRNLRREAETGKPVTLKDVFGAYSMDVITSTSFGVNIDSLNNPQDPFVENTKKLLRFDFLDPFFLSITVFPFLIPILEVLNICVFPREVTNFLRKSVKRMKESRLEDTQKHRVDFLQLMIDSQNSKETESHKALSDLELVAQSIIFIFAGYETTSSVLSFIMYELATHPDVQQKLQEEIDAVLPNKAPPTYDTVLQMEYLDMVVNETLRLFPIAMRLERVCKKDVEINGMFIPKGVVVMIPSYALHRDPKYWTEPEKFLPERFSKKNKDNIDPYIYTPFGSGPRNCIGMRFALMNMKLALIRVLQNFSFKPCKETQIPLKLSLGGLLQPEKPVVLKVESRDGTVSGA

The term IC50 denotes the point on the concentration scale where inhibition reaches its midpoint. Read a high IC50 as weaker potency. The term clearance denotes a measure of how efficiently the substance is removed, as volume per time. As usually defined, the bioavailability is the share of a dose that reaches the circulation, judged against a reference dose that is usually intravenous. One may read the Tmax as the time from dosing to the highest level. `N#Cc1ccc(N2CC3CC3C2C(O)C(F)(F)F)cc1Cl` (single isomer, unassigned) [Compound 3A]: the IC50 against CYP3A4 and at CYP2C9 was above 50 µM in each case. Further, the Vd in data set [1] (intravenous administration, dose 1.1 (1A), 0.69 (3A), 0.716 (8A) mg/kg, read-out: Apparent volume of distribution Vdss) is 1.83 L/kg. Moreover, the clearance in data set [1] (intravenous administration, dose 1.1 (1A), 0.69 (3A), 0.716 (8A) mg/kg, read-out: Clearance rate Cl) stood at 28.6 mL/min/kg. Besides, the AUC(0-inf) in data set [1] (intravenous administration, dose 1.1 (1A), 0.69 (3A), 0.716 (8A) mg/kg, read-out: Curve area (0-inf) AUC0-inf) turned out to be 1.29 µM·h. Besides, the AUC(0-t) in data set [1] (setting [2]) amounted to 1.28 µM·h; in data set [1] (setting [3]), 1.25 µM·h. The half-life was 81 min in data set [1] (setting [2]) and 108 min in data set [1] (setting [3]). Further, the bioavailability in data set [1] (oral, intragastric vs intravenous administration, read-out: Bioavailability F) came out at 16%. Besides, the Cmax in data set [1] (po, intragastric administration, dose 4.92 (1A), 4.2 (3A), 4.59 (8A) mg/kg, read-out: Blood drug concentration Cmax) came to 262 nM. The Tmax in data set [1] (po, intragastric administration, dose 4.92 (1A), 4.2 (3A), 4.59 (8A) mg/kg, read-out: Peak time Tmax) was 3 h.
